Calls of active or inactive are those of the source. The rule behind the calls is not given here. Residues, ends and D or L forms follow the SMILES beside them. *: point of attachment. X1 = O=C(CCC(=O)*)OCC(O)C1OC(=O)C(O)=C1O; Palmitoyl = CCCCCCCCCCCCCCCC(=O)*
How the values were obtained:
HDF [1] = experiment: Stimulation of collagen biosynthesis in primary cultured neonatal HDF at 100 uM after 72 hrs by ELISA in presence of fetal bovine serum; assay type: functional, cell-based; settings: Homo sapiens
[2] = Cytotoxicity against HDF at >100 uM; assay type: cell-based; settings: human
HDF [3] = experiment: Stimulation of collagen biosynthesis in primary cultured neonatal HDF at 1 to 1000 uM after 72 hrs by ELISA in presence of fetal bovine serum; assay type: functional, cell-based; settings: Homo sapiens
[4] = Stability in rat skin homogenates; assay type: ADME, tissue-based, Zone of skin; settings: read-out: Stability
[5] = Stability in rat skin homogenates assessed as compound remain after 6 hrs; assay type: ADME, tissue-based, Zone of skin; settings: read-out: Stability

Row | Compound | Activity (HDF [1]) | Activity [2] | Activity (HDF [3]) | half-life [4] [h] | remaining at 6 h [5] [%]
1 | CCCCCCCCCCCCCCCC(=O)N[C@@H](CCCCN)C(=O)N[C@H](C(=O)N[C@H](C(=O)N[C@@H](CCCCN)C(=O)N[C@@H](CO)C(=O)O)[C@@H](C)O)[C@@H](C)O (Palmitoyl-KTTKS-OH) | Active | Active |  |  | 
2 | C[C@@H](O)[C@H](NC(=O)[C@H](CCCCN)NC(=O)CCC(=O)OCC(O)C1OC(=O)C(O)=C1O)C(=O)N[C@H](C(=O)N[C@@H](CCCCN)C(=O)N[C@@H](CO)C(=O)O)[C@@H](C)O (some centres not stated) (X1-KTTKS-OH) |  |  | Active | > 6 | < 10
3 | O=C1O[C@H]([C@@H](O)CO)C(O)=C1O |  |  | inactive |  | 
4 | H-KTTKS-OH |  |  | inactive |  | 
